Test results as given in patent publication US11033559B2, “Leukocyte infiltration promoting agent and antitumor immunostimulatory agent” (OSAKA UNIVERSITY, priority 2015, dated 2021).

Tests used:
Format in all cases: in vivo
LLC cells = experiment: Tumor growth inhibition, subcutaneous tumor formed from LLC cells; settings: LLC-bearing mice; LPA 3 mg/kg i.p. once daily for seven days; 5-FU 100 mg/kg i.p. once weekly, 2 times
Procedure: LLC cells (1×10^6 cells in 100 μL PBS per animal) were subcutaneously injected into C57BL/6 NCrSlc mice aged 8 weeks (females) in the same manner as in Reference Example 1. An LPA solution for administration was prepared in the same manner as in Reference Example 1. 5-FU (Kyowa Hakko Kirin Co., Ltd.) was used as an anticancer drug. 5-FU was prepared as a solution in physiological saline (Otsuka Pharmaceutical Co., Ltd.). On day 7 post-inoculation, LLC-bearing mice that had developed a tumor with a volume of 30 to 50 mm^3 were selected and subjected to the experiment. The mice were assigned to three groups: a control group, a 5-FU group and an LPA group (n=3 per group). After grouping, LPA (3 mg/kg/100 μL), 5-FU (100 mg/kg/100 μL) or PBS (100 μL) was intraperitoneally administered to the mice. The administration of LPA or PBS was performed once daily for consecutive seven days. The administration of 5-FU was performed once weekly, 2 times in total (day 7 and day 14 post-inoculation). Tumor size was measured over time after the start of the administration. Tumor volume was calculated by the following formula: length×width×height×0.5.

[1] = test system: tumor blood vessels in LLC tumor-bearing mice; experiment: Structural changes in tumor blood vessels after administration of S1P; settings: 0.3 mg/kg via the tail vein once daily for three days, 24 hours after final administration
Procedure: S1P, a lysophospholipid other than LPA, was examined for the ability to induce vascular network formation in the tumor as with LPA. LLC cells were subcutaneously inoculated into C57BL/6 […] mice aged 8 weeks (females, SLC, Inc.) in the same manner as in Reference Example 1. S1P (Avanti Polar Lipids, Inc.) was dissolved in PBS at 10 mM, and the solution was stored at -30° C. as a stock solution. Before use, the frozen stock solution was thawed and homogenized with an ultrasonic cleaner (SND Co., Ltd.) for 1 minute. The SIP solution was diluted in PBS to an appropriate concentration for administration at a dose of 0.3 mg/kg in […] PBS. LLC-bearing mice on day 9 post-inoculation (animals with a tumor volume of 60 to 80 mm^3) were subjected to the experiment. The mice were divided into two groups: a control group and an S1P group (n=3 per group). After grouping, S1P was administered via the tail vein to the mice of the S1P group at a dose of 0.3 mg/kg in 100 μL PBS once daily for consecutive three days including the day of grouping. For the control group, PBS (100 μL) was administered via the tail vein to the mice instead of S1P. At 24 hours after the final administration, the tumors were harvested from the mice, and specimens of tumor blood vessels were prepared in the same manner as in Reference Example 1. […]

[2] = test system: tumor blood vessels in Lewis lung cancer (LLC) tumor-bearing mice; experiment: Structural changes in tumor blood vessels (anti-CD31 immunostaining) after administration of LPA or LPA derivative; settings: 3 mg/kg intraperitoneally once daily for five days, tumors harvested at 6 days, anti-CD31 staining
Procedure: LPA or an LPA derivative was administered to tumor-bearing mice generated by subcutaneous inoculation of a mouse cancer cell line, and post-administration structural changes in tumor blood vessels were examined.
Lewis lung cancer cells (hereinafter called LLC cells) were used as the mouse cancer cell line. LLC cells (1×10^6 cells in 100 μL PBS per animal) were subcutaneously injected into C57BL/6 NCrSlc mice aged 8 weeks (females, SLC, Inc.).
The LPA used was 18:1 LPA (Avanti Polar Lipids, Inc.). The LPA derivative used was VPC31144S (N-{(1S)-2-hydroxy-1-[(phosphonooxy)methyl]ethyl} (9Z) octade c-9-enamide). A 10 mM LPA stock solution and a 10 mM VPC31144S stock solution were separately prepared using 50% ethanol and stored at −30° C. Before use, each of the frozen stock solutions was thawed and homogenized with an ultrasonic cleaner (SND Co., Ltd.) for 1 minute. The solution was diluted in PBS to an appropriate concentration for administration at a dose of 3 mg/kg in 100 μL PBS.
On day 9 post-inoculation, LLC-bearing mice that had developed a tumor with a volume of 60 to 80 mm^3 (volume=length×width×height×0.5) were selected and subjected to the experiment. The mice were assigned to three groups: a control group, an LPA group and a VPC31144S group. Each group consisted of three mice. […]

O=c1[nH]cc(F)c(=O)[nH]1 [5-FU, reference compound]
inhibition of tumor growth (tumor volume) versus control group (LLC cells): remarkable inhibition of tumor growth

CCCCCCCCCCCCC/C=C/[C@@H](O)[C@@H](N)COP(=O)(O)O [S1P, sphingosine-1-phosphate]
vascular network formation in the tumor [1]: induced vascular network formation in the tumor

CCCCCCCC/C=C\CCCCCCCC(=O)N[C@@H](CO)COP(=O)(O)O [VPC31144S, N-{(1S)-2-hydroxy-1-[(phosphonooxy)methyl]ethyl} (9Z) octade c-9-enamide]
network structure of tumor blood vessels [2]: a continuous network of blood vessels was formed
